PMC4718634, “Murine GPRC6A Mediates Cellular Responses to L-Amino Acids, but Not Osteocalcin Variants” (PLoS ONE, 2016)
“Also recorded” adds a separate entry of the source. Where two headings read alike, the source gives them in different places.

Columns and labels:
PC-3 cells = conditions: endogenous; ref [18] (supplement list); cited from earlier work
From the text: (§1) Supplement pone.0146846.s004.docx, table 1 | column: Functional assay

mC6A = conditions: cited from earlier work
From the text: as §1

GLUTag cells [1] = conditions: endogenous; ref [17] (supplement list); cited from earlier work
From the text: as §1

GPRC6A = conditions: bind in the 7TM domain; ref [3], [4]; cited from earlier work
From the text: GPRC6A is a class C G protein-coupled receptor (GPCR) that has been cloned from human, mouse and rat. The receptor was initially deorphanised by fusion of its large N-terminal domain to the heptahelical and C-terminal region of the related goldfish 5.24 receptor [1]. […] These ligands are thought to bind in the N-terminal domain of the receptor [2] in a manner analogous to the binding of L-glutamate to metabotropic glutamate receptors. Small molecules, ...

MIN6 cells = test: Insulin release from MIN6 cells; assay type: cell-based, murine; conditions: NPS-2143 10 μM; ^^P < 0.01 vs L-ornithine alone; Fig 6B
Protocol: MIN6 or βTC-6 cells were seeded in 24-well plates at 170,000 cells per well in DMEM (containing 4.5g/L glucose, 10 mM HEPES, 100 U/ml penicillin, 100 μg/ml streptomycin and 15% de-complemented FBS) and incubated at 37°C / 5% CO2 for 72 h. Cells were then washed with 500 μl PBS and incubated in 500 μl deprivation media (DMEM with zero glucose, 10 mM HEPES, 1 mM Na-pyruvate, 100 U/ml penicillin, 100 μg/ml streptomycin, 15% de-complemented FBS) for 2 h at 37°C. Media was aspirated and after washing with 500 μl PBS, cells were treated with 250 μl of Krebs buffer (250 mM NaCl, 5.9 mM KCl, 1.2 mM MgCl2, 1.3 mM CaCl2, 25 mM HEPES, 0.1% BSA (w/v), and 2 mM or 16.7 mM glucose; pH 7.4) in the presence or absence of test compound. After incubation for 2 h at 37°C, the assay was terminated by placing the plates on ice and supernatants were transferred to a 96-well plate in preparation for insulin ELISA (Alpco) following manufacturer’s instructions. The cell monolayer was washed twice with 500 μl of PBS and then lysed using 250 μl of 1 N NaOH prior to protein measurement by the method of Bradford (1976).
(§2) Concentration-response data were analysed using a three or four parameter logistic function (Motulsky & Christopoulos, 2004) to generate estimates of agonist potency (LogEC50). Data for all HEK293 assays represent the mean ± SEM of at least three independent experiments (except cell impedance, n = 2). For GLP-1 release, the data represent mean ± SEM of three to five independent experiments (except for OCN, wash; n = 2). For insulin release assays, data represent the mean ± SEM of three independent experiments (except for islet studies; n = 2). Insulin release data were normalised to the response to vehicle in either low or high [glucose]. Statistical analysis for GLP-1 release data were performed by one-way ANOVA, followed by Sidak’s multiple comparisons test (treating wash / no wash datasets separately). Statistical analyses for insulin release data were performed by two-way ANOVA (with [glucose] and drug treatment as group variables), followed by Sidak’s multiple comparisons test. Where only high [glucose] groups were evaluated, statistical analysis was by one-way ANOVA followed by Sidak’s multiple comparisons test.

mGPRC6A (mouse GPRC6A) = target: T1, mGPRC6A (mouse GPRC6A) (Mus musculus, UniProt Q8K4Z6); test: Inositol phosphate (IP-One HTRF) accumulation, FlpIn-TREx-HEK293-mGPRC6A cells; assay type: cell-based; conditions: NPS-2143 30 μM; Fig 1C
T1 sequence (Q8K4Z6 21-928): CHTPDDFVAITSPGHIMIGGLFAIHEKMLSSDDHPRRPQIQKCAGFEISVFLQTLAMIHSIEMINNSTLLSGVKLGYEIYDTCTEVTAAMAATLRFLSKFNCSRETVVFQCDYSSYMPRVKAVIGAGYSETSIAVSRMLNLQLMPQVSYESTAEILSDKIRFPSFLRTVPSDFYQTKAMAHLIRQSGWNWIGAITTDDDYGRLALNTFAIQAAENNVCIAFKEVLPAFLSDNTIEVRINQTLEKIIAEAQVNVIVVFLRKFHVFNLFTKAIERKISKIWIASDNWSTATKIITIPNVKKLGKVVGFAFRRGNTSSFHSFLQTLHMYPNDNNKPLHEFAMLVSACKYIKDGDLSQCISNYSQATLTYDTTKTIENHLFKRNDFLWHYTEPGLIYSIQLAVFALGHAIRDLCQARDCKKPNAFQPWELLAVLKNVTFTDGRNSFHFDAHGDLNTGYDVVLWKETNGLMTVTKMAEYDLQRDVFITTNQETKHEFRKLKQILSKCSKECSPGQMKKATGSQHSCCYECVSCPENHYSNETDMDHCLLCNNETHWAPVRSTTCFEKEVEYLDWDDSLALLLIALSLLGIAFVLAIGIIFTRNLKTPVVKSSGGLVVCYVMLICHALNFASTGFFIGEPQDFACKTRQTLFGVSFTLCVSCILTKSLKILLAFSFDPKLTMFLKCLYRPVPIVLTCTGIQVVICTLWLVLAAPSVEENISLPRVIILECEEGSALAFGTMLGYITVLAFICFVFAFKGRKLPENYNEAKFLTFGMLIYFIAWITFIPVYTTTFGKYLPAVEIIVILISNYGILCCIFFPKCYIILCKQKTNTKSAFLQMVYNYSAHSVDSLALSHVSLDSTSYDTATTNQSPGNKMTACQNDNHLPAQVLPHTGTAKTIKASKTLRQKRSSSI
Protocol: pcDNA 5/FRT/TO constructs were isogenically integrated into a FlpIn-TREx-HEK293 cell line (Life Technologies). FlpIn-TREx-HEK293-mGPRC6A and FlpIn-TREx-HEK293-hGPRC6A cells were then selected using 600 μg/ml hygromycin and 5 μg/ml blasticidin and grown in culture medium consisting of Dulbecco’s Modified Eagle Medium (DMEM), supplemented with 10% (v/v) foetal bovine serum (FBS) at 37°C in 5% CO2 and were sub-cultured in a 1:3 ratio every 3–4 days. Cells were cultured overnight in the presence of 1 μg/ml tetracycline to induce GPRC6A expression. […] 48 h after transfection, cells were selected using 3 μg/ml puromycin and grown as above.
Inositol phosphate (IPX) accumulation experiments were performed using the IP-One HTRF® assay kit (Cisbio, France). Briefly, 24h after transfection with G proteins (as above), 10^5 cells were seeded per well in PDL-coated, 96-well white plates and incubated overnight. Cells were then washed 2 x 2h at 37°C in HBSS buffer (pH 7.2) containing 20 mM HEPES, 3.5 mM NaHCO3, 1 mM CaCl2 and 0.1% (w/v) BSA. Test compounds were then prepared in the kit stimulation buffer containing 2 mM CaCl2; cells were then incubated with 70 μl of drugs for 30 min, after which 15 μl of both IP1-D2 and Ab-Cryp were added to the cells, followed by a 1 h incubation at RT. Plates were read using an Envision plate reader (Perkin Elmer), using an HTRF protocol. Results were calculated from the 665nm / 620nm HTRF ratio (Ratio = A665nm/A620nm x 10^4) and expressed as a percentage of the maximal response obtained.
as §2

GLUTag cells [2] = test: GLP-1 release from GLUTag cells; assay type: cell-based, murine; conditions: NPS-2143 10 μM, 30 min pre-treatment; ^P < 0.05 vs L-ornithine alone; Fig 6A
Protocol: Intestinal L-cell model GLUTag cells were seeded in 24-well plates coated with Matrigel and incubated for 6 days in DMEM with 10% FBS, 100 U/ml penicillin, 100 μg/ml streptomycin at 37°C in 5% CO2 and grown for 4–5 days. Where indicated, cells were washed (1 or 2 x 1h) with Krebs-HEPES buffer (20 mM HEPES, 118 mM NaCl, 4.7 mM KCl, 1.2 mM MgSO4, 5 mM NaHCO3, 1.2 mM KH2PO4, 2.5 mM CaCl2, 5.5 mM glucose, 0.2% BSA (w/v), pH 7.2) containing vildagliptin (300 μM) prior to addition of test compounds in the same buffer. After 2 h incubation at 37°C in 5% CO2, the supernatant was recovered and centrifuged at 500 rpm for 5 min. Where used, NPS-2143 pre-treatment was for 30 min.
GLP-1 content in the cell supernatant was measured by ELISA (EGLP-35K, Millipore), according to manufacturer’s instructions after overnight incubation of 15 μl supernatant in 100 μl Krebs-HEPES buffer at 4°C. After 5 x washes, 200 μl of detection conjugate was added and incubated for 2 h at RT. After 3 x washes the reaction was developed with 200 μl of diluted substrate (1:200) for 20 min and terminated by addition of 50 μl stop solution. After 5 min, fluorescence was then measured using 355 nm excitation and 460 nm emission, transforming the obtained signal into pmol GLP-1/well/ml and corrected for GLUTag cell protein content as determined using the method of Bradford (1976).
as §2

For C[C@]12CC[C@H]3[C@@H](CCC4=CC(=O)CC[C@@]43C)[C@@H]1CC[C@@H]2O [Testosterone], the pERK1/2 response (PC-3 cells) is given as “pERK1/2 – response to Testosterone, L-Arg”, the “IP-One HTRF response” value (mC6A; ref [13] (supplement list)) is given as “No response” and the cAMP response (mC6A; ref [13] (supplement list)) is given as “no response”. The pERK response (mC6A; ref [13] (supplement list)) was “No specific response”, the cAMP response (mC6A; ref [18] (supplement list)) was “cAMP – response to Testosterone, L-Arg pERK1/2 – response to Testosterone” and the pERK1/2 response (mC6A; ref [18] (supplement list)) was “cAMP – response to Testosterone, L-Arg pERK1/2 – response to Testosterone”.

In the case of C[C@@H](NCc1cc2ccccc2[nH]1)c1cccc2ccccc12 [calindol], the “antagonism, Ca^2+i” value (GLUTag cells [1]) is given as “antagonist”, the “antagonism, GLP-1 secretion” value (GLUTag cells [1]) is given as “antagonist” and the “modulation of GPRC6A” value (GPRC6A) is given as “negative allosteric modulators”.

For CC(C)(Cc1ccc2ccccc2c1)NC[C@@H](O)COc1cccc(Cl)c1C#N [NPS-2143], the “reversal of L-ornithine-stimulated insulin secretion” value (MIN6 cells) is listed as “fully reversed”, the “inhibition of L-ornithine-stimulated inositol phosphate accumulation” value (mGPRC6A (mouse GPRC6A)) is listed as “inositol phosphate accumulation in response to L-ornithine was sensitive to application of the GPRC6A antagonist, NPS-2143; also recorded: can be inhibited with the antagonist” and the “modulation of GPRC6A” value (GPRC6A) is listed as “negative allosteric modulators”. For the same compound, the “reversal of L-ornithine-stimulated GLP-1 release” value (GLUTag cells [2]) was “fully reversed; also recorded: significantly reversed; also recorded: NPS-2143-sensitive”.
